According to paper PMC6017299, “Ent-Clerodane Diterpenes from the Bark of Croton oligandrus Pierre ex Hutch. and Assessment of Their Cytotoxicity against Human Cancer Cell Lines” (Molecules : A Journal of Synthetic Chemistry and Natural …, 2018):
Where two headings read alike, the source gives them in different places.

What was measured:
Type in all cases: cell-based
[1] = test system: A549 (adenocarcinoma human alveolar basal epithelial cell line); assay: MTT cell viability assay, A549 cells; conditions: 0 to 200 µM, 48 h, mean ± SEM (n = 3), read-out: IC50 (50% cell growth inhibition) A549
Procedure: (§1) The in vitro activity of the crude extracts, fractions and isolated compounds from C. oligandrus on metabolic cell viability was assessed against A549 (adenocarcinoma human alveolar basal epithelial cell 211 line), MCF7 (human breast adenocarcinoma cell line), PC3 (human prostate cancer cell line) and PNT2 212 (human normal prostate epithelium cell line). The resulting inhibitory activity is termed “cytotoxic activity” throughout the manuscript. The cell lines were grown in RPMI medium supplemented with L-glutamine (2 mM), penicillin (100 U/mL), streptomycin (100 μg/mL) and 10% foetal bovine serum (FBS) and cultured at 37 °C, 5% CO2 and 95% humidity. For experimental use, the cells were seeded into 96-well plates (1.2 × 10^4/well) and incubated for 24 h. Cells were then treated with crude extract (0–250 µg/mL) for 24 h or isolated compounds (0 to 200 µM) for 48 h and the cell viability was measured using the MTT assay. The formazan crystals formed were dissolved in DMSO and optical density was read at 570 nm using a ClarioStar plate reader, Manchester, UK. Three individual wells were assayed per treatment; the assay was repeated three times and cytotoxic activity was determined using the percentage of absorbance compared to the control cells [(absorbance of treated cells/absorbance of untreated cells) × 100]. Doxorubicin was used as the positive control and the IC50 value of each test sample was calculated using the software Graphad Prism 7.02, La Jolla, CA, USA.

[2] = test system: MCF7 (human breast adenocarcinoma cell line); assay: MTT cell viability assay, MCF7 cells; conditions: 0 to 200 µM, mean ± SEM (n = 3), read-out: IC50 (50% cell growth inhibition) MCF-7
Procedure: (§2) The resulting inhibitory activity is termed “cytotoxic activity” throughout the manuscript. The cell lines were grown in RPMI medium supplemented with L-glutamine (2 mM), penicillin (100 U/mL), streptomycin (100 μg/mL) and 10% foetal bovine serum (FBS) and cultured at 37 °C, 5% CO2 and 95% humidity. For experimental use, the cells were seeded into 96-well plates (1.2 × 10^4/well) and incubated for 24 h. […] The formazan crystals formed were dissolved in DMSO and optical density was read at 570 nm using a ClarioStar plate reader, Manchester, UK. Three individual wells were assayed per treatment; the assay was repeated three times and cytotoxic activity was determined using the percentage of absorbance compared to the control cells [(absorbance of treated cells/absorbance of untreated cells) × 100].

[3] = test system: PC3 (human prostate cancer cell line); assay: MTT cell viability assay, PC3 cells; conditions: 0 to 200 µM, 48 h, mean ± SEM (n = 3), read-out: IC50 (50% cell growth inhibition) PC-3
Procedure: as §1

[4] = test system: PNT2 (human normal prostate epithelium cell line); assay: MTT cell viability assay, PNT2 cells; conditions: 0 to 200 µM, 48 h, noncancerous cells, mean ± SEM (n = 3), read-out: IC50 (50% cell growth inhibition) PNT2
Procedure: as §1

[5] = test system: A549, MCF7, PC3 and PNT2 cell lines; assay: MTT cell viability assay, statements across the cell line panel; conditions: Homo sapiens, positive control, read-out: IC50 range between the cell lines used
Procedure: as §2

[6] = Homo sapiens, PC-3, isolated compounds
[7] = Homo sapiens, PNT2, isolated compounds
[8] = Homo sapiens, A549, isolated compounds
[9] = Homo sapiens, MCF7, isolated compounds, 48 h

Row | SMILES | IC50 [3, 6] [µM] | IC50 [1, 8] [µM] | IC50 [2, 9] [µM] | IC50 [5] [µM] | IC50 ([1]; isolated compounds) [µM] | IC50 ([2]; Homo sapiens, MCF7, 48 h, isolated compounds) [µM] | IC50 [4, 7] [µM] | IC50 ([2]; isolated compounds, 48 h) [µM] | IC50 ([3]; isolated compounds) [µM] | IC50 ([4]; isolated compounds) [µM]
1 | COC(=O)C1=CC(=O)C=C2C1(C(=O)OC)CCC(C)C21CC(c2ccoc2)OC1=O (centres unmarked) [Compound 1, megalocarpoidolide D] | > 200 | – | – | – | 63.8 ± 13.8 | 136 ± 22.7 | > 200 | – | – | –
2 | COC(=O)C1=CC(=O)C=C2C1(C(=O)OC)CCC(C)C21CC(c2ccoc2)OC1=O (stereo not drawn) [Compound 2, 12-epi-megalocarpoidolide D] | – | – | – | – | 139 ± 22.1 | – | – | 171 ± 51.4 | > 200 | > 200
3 | COc1cc(C=O)ccc1O [Compound 8, vanillin] | > 200 | > 200 | > 200 | – | – | – | > 200 | – | – | –
4 | CC(=O)O[C@H]1CC[C@]2(C)[C@H]3CC[C@]4(C)C(=CC[C@@]5(C(=O)O)CCC(C)(C)C[C@H]54)[C@]3(C)CC[C@H]2C1(C)C [Compound 9, acetyl-aleuritolic acid] | 172 ± 39.7 | 137 ± 18.9 | > 200 | – | – | – | 168 ± 25.3 | – | – | –
5 | C=C(C)[C@@H]1CC[C@]2(C)CC[C@]3(C)[C@H](CC[C@@H]4[C@@]5(C)CC[C@H](O)C(C)(C)[C@@H]5CC[C@]43C)[C@@H]12 [Compound 10, lupeol] | 136 ± 21.1 | > 200 | > 200 | – | – | – | > 200 | – | – | –

Continued, in another order:

Row | IC50 [3, 6] [µM] | IC50 [1, 8] [µM] | IC50 [2, 9] [µM] | IC50 [5] [µM] | SMILES | IC50 ([1]; isolated compounds) [µM] | IC50 ([2]; Homo sapiens, MCF7, 48 h, isolated compounds) [µM] | IC50 [4, 7] [µM] | IC50 ([2]; isolated compounds, 48 h) [µM] | IC50 ([3]; isolated compounds) [µM] | IC50 ([4]; isolated compounds) [µM]
6 | > 200 | 107 ± 27.2 | > 200 | – | COC(=O)C1=CCCC2C1(C(=O)OC)CCC(C)C21CC(c2ccoc2)OC1=O (stereo not drawn) [Compound 5, 12-epi-crotocorylifuran] | – | – | > 200 | – | – | –
7 | 16.4 ± 2.9 | 1.3 ± 0.3 | 0.7 ± 0.1 | 0.7 to 16.4 | COc1cccc2c1C(=O)c1c(O)c3c(c(O)c1C2=O)C[C@@](O)(C(=O)CO)C[C@@H]3O[C@H]1C[C@H](N)[C@H](O)[C@H](C)O1 [Doxorubicin, reference compound] | – | – | 1.5 ± 0.3 | – | – | –
